Measurements reported in US20260263448A1, “CONTROLLED RELEASE INJECTABLE CARIPRAZINE FORMULATION” (Richter Gedeon Nyrt., priority 2021, published 2026).
In brackets after ≈: the same amount, converted by molar mass. Counter-ions that a name gives are not always drawn. Like-named read-outs stand apart in the source and are kept apart here.

Assay: Solubility at different pH values (37° C.)
Format: physicochemical
Details: for solubility: aqueous buffer, read-out: Solubility (average, mg/ml); for Solubility in the pH-range of human muscle and subcutaneous tissues: pH 6.8-7.5

| Compound | solubility (pH = 3, 37° C.) [mg/mL] | solubility (pH = 4.4, 37° C.) [mg/mL] | solubility (pH = 6.8, 37° C.) [mg/mL] | Solubility in the pH-range of human muscle and subcutaneous tissues | Solubility category (USP) (pH = 3, 37° C.) | Solubility category (USP) (pH = 4.4, 37° C.) | Solubility category (USP) (pH = 6.8, 37° C.) | Solubility (average, mg/ml) (pH = 7.4, 37° C.) | Solubility category (USP) (pH = 7.4, 37° C.) | solubility (pH = 4.5, 37° C.) [mg/mL] | solubility (pH = 5.5, 37° C.) [mg/mL] | solubility (pH = 7.5, 37° C.) [mg/mL] | Solubility category (USP) (pH = 4.5, 37° C.) | Solubility category (USP) (pH = 5.5, 37° C.) | Solubility (average, mg/ml) (pH = 6.8, 37° C.) [mg/mL] | Solubility category (USP) (pH = 7.5, 37° C.) |
| --- | --- | --- | --- | --- | --- | --- | --- | --- | --- | --- | --- | --- | --- | --- | --- | --- |
| CN(C)C(=O)N[C@H]1CC[C@H](CCN2CCN(c3cccc(Cl)c3Cl)CC2)CC1 [Cariprazine base, trans-N-{4-[2-[4-(2,3-dichlorophenyl)-piperazin-1-yl]-ethyl]-cyclohexyl}-N′,N′-dimethylurea] | 0.204 (≈ 477 µM) | 0.357 (≈ 835 µM) | 0.0007 (≈ 1.64 µM) | practically insoluble | Very slightly soluble | Very slightly soluble | Practically insoluble | not detectable | Practically insoluble | – | – | – | – | – | – | – |
| CN(C)C(=O)N[C@H]1CC[C@H](CCN2CCN(c3cccc(Cl)c3Cl)CC2)CC1 [Cariprazine hydrochloride] | 6 | – | – | practically insoluble | Slightly soluble | – | Practically insoluble | – | – | 13.8 | 0.27 | 0.001 | Sparingly soluble | Very slightly soluble | 0.005 | Practically insoluble |
